Legend:
[1] = test system: human tumor xenografts; experiment: clonogenic assay, all 12 xenografts (means, active/total); format: cell-based
Method: The cell mixture was passed through sieves of 200 μm and 50 μm mesh size and washed thereafter twice with PBS. The percentage of viable cells was determined in a Neubauer counting chamber using trypan blue exclusion.
8×10^3 to 1,6×10^4 cells were added to 0.2 ml of the same culture medium together with 0.4% agar and placed in already coated 24-multiwell dishes. Test substances were applied by continuous exposure (drug overlay) in 0.2 ml medium. Every dish included six control wells containing the vehicle- and drug-treated groups in triplicate at six concentrations.
Cultures were incubated at 37° and 7% CO2 in a humidified atmosphere for 5 to 15 days (depending on the doubling time of the tumor stem cells) and monitored for colony growth using an inverted microscope. Within this period, in vitro tumor growth led to the formation of colonies with a diameter of ≧50 μm. At the time of maximum colony formation counts were performed with an automatic image analysis system (OMNICOM Fas IV, Biosys GmbH). […] Drug effects were expressed in terms of the percentage of surviving cells, obtained by comparison of the mean number of colonies in the treated plates with the mean colony count of the untreated controls (test-versus-control-group value, T/C=colony countTreated Group*100/colony countControl Group).
(§1) Coefficient of variation in the control group ≦50%. IC50 and IC70 values were determined by plotting compound concentration versus cell survival rate. Mean IC50 and IC70 values were calculated according to the formula: [formula]
(§2) with x=specific tumor xenograft and n=total number of tumor xenografts studied. If an IC50 or IC70 value could not be determined within the examined dose range, the lowest or highest concentration studied was used for the calculation.

[2] = test system: RXF 393; experiment: clonogenic assay (colony forming assay); format: cell-based, human; settings: RXF 393/9; X194AM
Method: (§3) Solid human tumor xenografts growing subcutaneously in serial passages in thymus-aplastic nude mice (NMRI nu/nu strain, obtained from our own breeding facility) were removed under sterile conditions, the cells were mechanically disaggregated and subsequently incubated with an enzyme cocktail consisting of collagenase (1.2-1.8 U/ml, Worthington), DNAse (375 U/ml, Boehringer Mannheim) und hyaluronidase (29 U/ml, Boehringer Mannheim) in RPMI 1640 at 37° C. for 30 minutes. The cell mixture was passed through sieves of 200 μm and 50 μm mesh size and washed thereafter twice with PBS. The percentage of viable cells was determined in a Neubauer counting chamber using trypan blue exclusion.
(§4) The clonogenic assay was performed according to a modified two-layer soft agar assay described by Hamburger and Salmon (Hamburger and Salmon, Science, 197: 461463, 1977). The bottom layer consisted of 0.2 ml Iscoves' Modified Dulbecco's Medium with 20% fetal calf serum and 0.75% agar. 8×10^3 to 1,6×10^4 cells were added to 0.2 ml of the same culture medium together with 0.4% agar and placed in already coated 24-multiwell dishes. Test substances were applied by continuous exposure (drug overlay) in 0.2 ml medium. Every dish included six control wells containing the vehicle- and drug-treated groups in triplicate at six concentrations.
(§5) Cultures were incubated at 37° and 7% CO2 in a humidified atmosphere for 5 to 15 days (depending on the doubling time of the tumor stem cells) and monitored for colony growth using an inverted microscope. Within this period, in vitro tumor growth led to the formation of colonies with a diameter of ≧50 μm. At the time of maximum colony formation counts were performed with an automatic image analysis system (OMNICOM Fas IV, Biosys GmbH). 24 hours prior to this assay, vital colonies were stained with a sterile aqueous solution of 2-(4-iodophenyl)-3-(4-nitrophenyl)-5-phenyltetrazolium chloride (1 mg/ml, 100 μI/well). Drug effects were expressed in terms of the percentage of surviving cells, obtained by comparison of the mean number of colonies in the treated plates with the mean colony count of the untreated controls (test-versus-control-group value, T/C=colony countTreated Group*100/colony countControl Group).
as §1, §2

[3] = test system: MAXF 401NL; experiment: clonogenic assay (colony forming assay); format: cell-based, human; settings: MAXF 401/16, X186AM
Method: as §3, §4, §5, §1, §2

[4] = test system: RXF 423; experiment: clonogenic assay (colony forming assay); format: cell-based, human; settings: RXF 423/16; X183AM
Method: as §3, §4, §5, §1, §2

[5] = test system: PRXF DU145X; experiment: clonogenic assay (colony forming assay); format: cell-based, human; settings: PRXF DU145X/15, X229AM
Method: as §3, §4, §5, §1, §2

[6] = corresponding selenium concentration
[7] = mean over the xenografts studied

Structure (SMILES): O=[Se]([O-])[O-].[Na+].[Na+] [sodium selenite]
- T/C values in all xenografts ([1]; 100 μM): below 20%
- active(++, +++)/total ([1]; 1. μM): 0/12
- active(++, +++)/total xenografts only, percent ([1]; 1. μM): 0%
- active(++, +++)/total ([1]; 10. μM): 2/12
- active(++, +++)/total xenografts only, percent ([1]; 10. μM): 17%
- active(++, +++)/total ([1]; 100. μM): 12/12
- active(++, +++)/total xenografts only, percent ([1]; 100. μM): 100%
- active(++, +++)/total ([1]; .001 μM): 0/12
- active(++, +++)/total xenografts only, percent ([1]; .001 μM): 0%
- active(++, +++)/total ([1]; .01 μM): 0/12
- active(++, +++)/total xenografts only, percent ([1]; .01 μM): 0%
- active(++, +++)/total ([1]; .1 μM): 0/12
- active(++, +++)/total xenografts only, percent ([1]; .1 μM): 0%
- cytotoxic effect ([1]; amounts up to 1 μM): no distinct cytotoxic effect
- mean IC50 as selenium concentration [1, 6]: 1,2 μg/ml
- mean IC70 as selenium concentration [1, 6]: 2.1 µg/mL
- IC50 [1, 7]: 15.5 µM
- mean IC70 [1, 7]: 27 µM
- Test/control (%) at drug concentration [μM] 1. [2]: 31%
- Test/control (%) at drug concentration [μM] 10. [2]: 32%
- Test/control (%) at drug concentration [μM] 100. [2]: 10%
- Test/control (%) at drug concentration [μM] .001 [2]: 62%
- Test/control (%) at drug concentration [μM] .01 [2]: 45%
- Test/control (%) at drug concentration [μM] .1 [2]: 31%
- Test/control (%) class at drug concentration [μM] 1. [2]: + (+ (30% ≦ T/C < 50%))
- Test/control (%) class at drug concentration [μM] 10. [2]: + (+ (30% ≦ T/C < 50%))
- Test/control (%) class at drug concentration [μM] 100. [2]: +++ (+++ (T/C ≦ 10%))
- Test/control (%) class at drug concentration [μM] .001 [2]: − (− (T/C ≧ 50%))
- Test/control (%) class at drug concentration [μM] .01 [2]: − (− (T/C ≧ 50%))
- Test/control (%) class at drug concentration [μM] .1 [2]: + (+ (30% ≦ T/C < 50%))
- Test/control (%) at drug concentration [μM] 1. [3]: 74%
- Test/control (%) at drug concentration [μM] 10. [3]: 66%
- Test/control (%) at drug concentration [μM] 100. [3]: 8%
- Test/control (%) at drug concentration [μM] .1 [3]: 53%
- Test/control (%) class at drug concentration [μM] 1. [3]: − (− (T/C ≧ 50%))
- Test/control (%) class at drug concentration [μM] 10. [3]: − (− (T/C ≧ 50%))
- Test/control (%) class at drug concentration [μM] 100. [3]: +++ (+++ (T/C ≦ 10%))
- Test/control (%) class at drug concentration [μM] .1 [3]: − (− (T/C ≧ 50%))
- Test/control (%) at drug concentration [μM] .001 ([3]; s result of a dish): 67%
- Test/control (%) at drug concentration [μM] .01 ([3]; s result of a dish): 81%
- Test/control (%) class at drug concentration [μM] .001 ([3]; s result of a dish): − (− (T/C ≧ 50%))
- Test/control (%) class at drug concentration [μM] .01 ([3]; s result of a dish): − (− (T/C ≧ 50%))
- Test/control (%) at drug concentration [μM] 1. [4]: 92%
- Test/control (%) at drug concentration [μM] 10. [4]: 110%
- Test/control (%) at drug concentration [μM] 100. [4]: 0%
- Test/control (%) at drug concentration [μM] .001 [4]: 99%
- Test/control (%) at drug concentration [μM] .01 [4]: 111%
- Test/control (%) at drug concentration [μM] .1 [4]: 120%
- Test/control (%) class at drug concentration [μM] 1. [4]: − (− (T/C ≧ 50%))
- Test/control (%) class at drug concentration [μM] 10. [4]: − (− (T/C ≧ 50%))
- Test/control (%) class at drug concentration [μM] 100. [4]: +++ (+++ (T/C ≦ 10%))
- Test/control (%) class at drug concentration [μM] .001 [4]: − (− (T/C ≧ 50%))
- Test/control (%) class at drug concentration [μM] .01 [4]: − (− (T/C ≧ 50%))
- Test/control (%) class at drug concentration [μM] .1 [4]: − (− (T/C ≧ 50%))
- Test/control (%) at drug concentration [μM] 1. [5]: 91%
- Test/control (%) at drug concentration [μM] 10. [5]: 5%
- Test/control (%) at drug concentration [μM] 100. [5]: 0%
- Test/control (%) at drug concentration [μM] .001 [5]: 97%
- Test/control (%) at drug concentration [μM] .01 [5]: 96%
- Test/control (%) at drug concentration [μM] .1 [5]: 92%
- Test/control (%) class at drug concentration [μM] 1. [5]: − (− (T/C ≧ 50%))
- Test/control (%) class at drug concentration [μM] 10. [5]: +++ (+++ (T/C ≦ 10%))
- Test/control (%) class at drug concentration [μM] 100. [5]: +++ (+++ (T/C ≦ 10%))
- Test/control (%) class at drug concentration [μM] .001 [5]: − (− (T/C ≧ 50%))
- Test/control (%) class at drug concentration [μM] .01 [5]: − (− (T/C ≧ 50%))
- Test/control (%) class at drug concentration [μM] .1 [5]: − (− (T/C ≧ 50%))
- Test/control (%) at drug concentration [μM] 10. ([5]; listed as selenium): < 30%
